These results are taken from PMC11279616 (Pharmaceuticals, 2024).

Where no end group is shown, it is not given here.

Data set [1] deals with Vero E6 cells. Type of data set: cell-based, African green monkey. Conditions: at 50 and at 100 μg, MTS. How it is done:
For the MTS assay, VERO E6 cells (2 × 10^4/well) were seeded into 96-well plates in triplicate and cultured in growth medium. Then, different peptide concentrations were added, and the viability was tested every day for three consecutive days using the CellTiter […] Aqueous One Solution Cell Proliferation Assay kit (CTB169; Promega, Fitchburg, WI, USA) following the manufacturers manual. Untreated cells were used for value normalizations.

Data set [2] deals with Vero E6 cells. Conditions: 100 µg.

As for VTNATAPNTDVSVSLSMILQTISASI [pep6], the concentration/toxicity ratio result with Vero E6 cells [1] is listed as “best concentration/toxicity ratio”.

As for “VVNTDSLSSVTNATSIQITAPASMLI [DPP4_270–295]”, the toxic effect result with Vero E6 cells [2] is “without observing any toxic effect”.
